The source of these data is paper PMC9772450, “Gel-forming antagonist provides a lasting effect on CGRP-induced vasodilation” (Frontiers in Pharmacology, 2022).

Like-named read-outs stand apart in the source and are kept apart here. Non-standard residues stand in square brackets, D forms with d. Residues, ends and D or L forms follow the SMILES beside them. *: point of attachment. 2Nal = N[C@@H](Cc1ccc2ccccc2c1)C(=O)O; Met(O2) = CS(=O)(=O)CC[C@H](N)C(=O)O; Arg(Me) = CNC(=N)NCCC[C@H](N)C(=O)O; Palmitoyl = CCCCCCCCCCCCCCCC(=O)*; Nva = CCC[C@H](N)C(=O)O

The conditions of data set [1]: cited from earlier work.
Data set [2] has as its target T1, CLR/RAMP1 receptor (Homo sapiens, UniProt O60894+Q16602).
T1 construct: host or cells: CHO-K1 (cAMP Hunter cell line)
As to the kind of experiment: HitHunter cAMP XS+ CALCRL-RAMP1 cAMP assay, antagonist mode. To be noted: for Antagonistic activity toward CGRP-mediated CLR/RAMP1 signaling compared to ADE651: result in words; for IC50: CHO-K1 CALCRL-RAMP1 cAMP Hunter cells, human β-CGRP at EC80 (0.37nM), 30 min pre-incubation, 10-point curve from 10 μM, 3-fold dilutions, duplicate samples, assayed side-by-side once, read-out: IC50 for antagonizing CGRP-induced CLR/RAMP1 signaling; for Maximum response: antagonist mode, β-CGRP at EC80, 10-point curve, duplicate. In kind it is cell-based. The protocol: The assay of the antagonistic activity of analogs was conducted by the Eurofins Discoverx using the HitHunter cAMP XS + assay as described earlier ([Bradley and McLoughlin, 2009]; [Chang and Hsu, 2019]). The dose-dependent inhibitory effect of antagonists was studied in duplicate, at 10 different concentrations. Determination of the half-maximal inhibitory concentration (IC50) was performed using a 10-point dose-response curve. The starting concentration was 10 μM, and it was serially diluted 3-fold, in DMSO. […] Using the Hit Hunter® assay (CALCRL-RAMP1 cAMP assay in the antagonist mode; https://www.discoverx.com/products/cell-line/cho-k1-calcrl-ramp1-gs-cell-line-95-0164c2), the eight compounds in Table 1 were assayed side-by-side once, and the IC50 was derived based on the standard assay of duplicate samples of a ten-point curve. In this homogenous, non-imaging assay, the activation of CLR/RAMP1 signaling was evaluated using the Enzyme Fragment Complementation (EFC) technology with β-galactosidase (β-Gal) as the functional reporter. The enzyme was split into two complementary portions: an enzyme acceptor and an enzyme donor. The enzyme donor is fused to cAMP and it competes with cAMP generated by cells
For binding to a cAMP-specific antibody. Active β-Gal is formed by complementation of exogenous enzyme acceptor to any unbound enzyme donor-cAMP. The active enzyme then converted a chemiluminescent substrate to generate a signal. Briefly, cAMP Hunter cell lines with the select receptor were expanded from freezer stocks ([Bradley and McLoughlin, 2009]), and cells were seeded in a total volume of 20 μL into 384-well microplates and incubated at 37°C for the appropriate time. […] Intermediate dilution of samples was performed to generate 4X sample in the assay buffer. Before the assay, media was aspirated from cells and replaced with 10 μL 1:1 HBSS/Hepes:cAMP XS + Ab reagent, and 5 μL of 4X compound was added to the cells and incubated for 30 min. […] Vehicle concentration was 1%.
The chemiluminescent signal was read with a PerkinElmer chemiluminescent plate reader. The compound activity was analyzed using a CBIS data analysis suite (ChemInnovation, CA). The percentage inhibition was calculated using the following formula: % Inhibition = 100% x (1 - (mean RLU of test sample - mean RLU of vehicle control)/(mean RLU of EC80 control - mean RLU of vehicle control)). Data were normalized to the maximal and minimal response observed in the presence of EC80 agonist and vehicle.

Data set [3] can be described thus: Visual (tube-tapping) assay of gel-forming capability and solubility. In kind it is physicochemical. Also on record: key to Gel-forming ability: Y: can form a liquid gel; N: lacks the ability to efficiently form a liquid gel. To be noted: for Gel-forming ability: visual inspection of 11% peptide solutions, tube-tapping, 20 min after mixing. The protocol:
To evaluate the ability of peptides to form gels in situ, we initially determined this tendency qualitatively based on visual examinations of peptide solutions using a tube-tapping method. In addition, we quantitatively determined the viscosity of select peptide solutions using a viscometer (Rheosense Inc; http://www.rheosense.com/products/viscometers) ([Yan and Pochan, 2010]). In the visual assay, aliquots of peptides were dissolved in an aqueous solution (i.e., de-ionized water, saline, or 5% glucose solution). The peptide that dissolved instantly and stayed as a clear solution without obvious macroscopic change in viscosity at 20 min after mixing was considered soluble. If macroscopic particles of peptides remained in the solution at 20 min after mixing, the peptide was considered insoluble.

Data set [4] relates to migraine. The following applies: ref Overeem et al., 2021; cited from earlier work. From the text: Migraine is a common complex neurovascular disorder that is manifested as episodic and predominantly unilateral throbbing headache with hypersensitivity to light, sound, and movement ([Erdener and Dalkara, 2014]; [Schuster and Rapoport, 2016]). According to the World Health Organization, 324 million people worldwide suffer from incapacitating migraine in 2008. In ∼ one-third of patients, migraine headaches are accompanied by an aura involving neurological symptoms such as transient visual, sensory, or motor disturbances ([Goadsby et al., 2002]). In the US, it was reported that 15% of Americans ...

Data set [5] is described as follows: Passage of peptide molecules through Centricon filters. It is filed as physicochemical. To be noted: Centricon 30,000 MW cutoff, 15 min centrifugation; specific EIA; N = 3 per group; result in words. From the text:
To evaluate whether gel-formation reduces the movement of peptide molecules in solution, we used the Centricon® filters (Millipore) to separate samples and the carriers based on their molecular mass. The sample is monomeric peptides, and the carrier is the self-assembled gel. One milligram aliquots of the peptides were first dissolved as 0.1% solution in 5% glucose, 0.1% solution in saline, 5% solution in 5% glucose, 10% solution in 5% glucose, and 20% solution in 5% glucose. Ten minutes later, the 5%, 10%, and 20% solutions were diluted to the 0.1% level. Aliquots of these solutions were sampled and dispensed into separate Centricon columns (30,000 MW cutoff), and the monomeric peptide and gel molecules were separated by centrifugation for 15 min (2000 x g). The level of peptide in the elutes was determined by specific EIAs (Phoenix Pharmaceuticals Inc.).

The subject of data set [6] is CGRP-induced vasodilation. As to the kind of experiment: Dermal blood flow and vasodilation in rat hindlimbs, laser Doppler imaging. The following applies: rat hindlimb; saline at 0 h; CGRP 1 mg/100 µL s.c. at 4 h; N = 3. It is filed as in vivo, Sprague-Dawley rats. The protocol:
Adult Sprague Dawley male rats (body weight 150–200 g) were randomly divided into treatment groups. Animals were individually housed during the experiment. After acclimation, rats were anesthetized and stabilized under 2.5% isoflurane, and were placed on a heating pad. Testing articles were prepared just before the experiment and individually administered subcutaneously into the hindlimbs. Human β-CGRP (LifeTein LLC, Hillsborough, NJ) was dissolved in a saline solution, and the antagonist solution was prepared in a 5% glucose solution. […] In this experiment, the antagonist gel solution was administered at 0 h as a liquid solution shortly after dissolution to prevent issues associated with the formation of semi-solid gel when the peptide is dissolved at high levels. […] The amount of blood flow was determined by laser Doppler imaging as described earlier ([Van der Schueren et al., 2007]; [Benschop et al., 2014]). The laser Doppler scan series of the hindlimbs began with two baseline scans and was followed by two scans each at select time points. Data are reported as percent change from the average baseline scans.

T1 sequence (Q16602 23-461): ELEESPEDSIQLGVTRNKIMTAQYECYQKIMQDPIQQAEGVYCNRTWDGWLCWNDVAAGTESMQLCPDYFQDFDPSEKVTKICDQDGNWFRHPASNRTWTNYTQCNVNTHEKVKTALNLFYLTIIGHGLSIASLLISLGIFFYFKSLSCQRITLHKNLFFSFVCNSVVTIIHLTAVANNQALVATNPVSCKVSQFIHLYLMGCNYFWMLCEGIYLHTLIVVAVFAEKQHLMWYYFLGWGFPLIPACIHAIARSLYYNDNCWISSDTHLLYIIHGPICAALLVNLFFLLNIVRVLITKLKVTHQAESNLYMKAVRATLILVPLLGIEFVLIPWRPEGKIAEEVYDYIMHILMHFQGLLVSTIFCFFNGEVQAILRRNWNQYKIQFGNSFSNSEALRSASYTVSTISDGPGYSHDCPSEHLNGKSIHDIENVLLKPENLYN
T1 sequence (O60894 27-148): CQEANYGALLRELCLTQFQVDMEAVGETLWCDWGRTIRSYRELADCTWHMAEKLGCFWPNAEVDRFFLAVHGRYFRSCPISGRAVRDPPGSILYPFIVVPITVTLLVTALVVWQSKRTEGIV

Take “abaloparatide: approved peptide therapeutic”: in data set [1] (in vivo), the Volume of distribution was 50.0 L.
Consider `CCCCCCCCCCCCCCCC(=O)N[C@@H](CCCCN)C(=O)N[C@H](C(=O)N[C@@H](CCC(N)=O)C(=O)N[C@@H](CCCNC(=N)NC)C(=O)N[C@@H](CC(C)C)C(=O)N[C@@H](CO)C(=O)N[C@@H](C)C(=O)N1CCC[C@H]1C(=O)N[C@H](C(=O)N[C@@H](CC(=O)O)C(=O)N1CCC[C@H]1C(=O)N[C@@H](CO)C(=O)N[C@@H](CO)C(=O)N1CCC[C@H]1C(=O)N[C@@H](Cc1c[nH]cn1)C(=O)N[C@@H](CO)C(=O)N[C@@H](Cc1ccc(O)cc1)C(N)=O)C(C)C)C(C)C` [ADE651M] (Palmitoyl-KVQ[Arg(Me)]LSAPVDPSSPHSY-NH2), for which the “Antagonistic activity toward CGRP-mediated CLR/RAMP1 signaling compared to ADE651” value in data set [2] was “retained the potent antagonistic activity”. Moreover, in data set [3], the Gel-forming ability result is listed as “Y”.
In the case of `CCCCCCCCCCCCCCCC(=O)N[C@@H](CCCCN)C(=O)N[C@H](C(=O)N[C@@H](CCC(N)=O)C(=O)N[C@@H](CCCCN)C(=O)N[C@@H](CCC)C(=O)N[C@@H](CO)C(=O)N[C@@H](C)C(=O)N1CCC[C@H]1C(=O)N[C@H](C(=O)N[C@@H](CC(=O)O)C(=O)N1CCC[C@H]1C(=O)N[C@@H](CO)C(=O)N[C@@H](CO)C(=O)N1CCC[C@H]1C(=O)N[C@@H](Cc1c[nH]cn1)C(=O)N[C@@H](CO)C(=O)N[C@@H](Cc1ccc(O)cc1)C(N)=O)C(C)C)C(C)C` [ADE651C] (Palmitoyl-KVQK[Nva]SAPVDPSSPHSY-NH2), in data set [2], the IC50 is 1.3 nM, the Maximum response is 101 % of positive control and the “Antagonistic activity toward CGRP-mediated CLR/RAMP1 signaling compared to ADE651” value is recorded as “retained the potent antagonistic activity”. Also, in data set [3], the Gel-forming ability entry is on record as “Y”.
Turning to `CC1(C)O[C@@H]2[C@@H](CO[C@@]3(COS(N)(=O)=O)OC(C)(C)O[C@@H]23)O1` [topiramate], the “Reduction of migraine days” value in data set [4] is listed as 1.11 migraine days.
For “VGCRFGTCTVQKLAHLWQLMGPAGRQDSAPVDPSSPHSY-NH2 [ADE410]”, in data set [3] (visual), the “Solubility in 5% glucose solution” value was “soluble from 0.1% to 20%”. For the same compound, the “Liquid gel formation at 6–20% level” value in data set [3] (visual, result in words) is “does not form a liquid gel”. Further, the “Peptide level in elutes from 0.1, 5, 10 and 20% solution groups” value in data set [5] is “similar”.
With histrelin, in data set [1] (in vivo), the Volume of distribution is reported as 58.4 L.
As for setmelanotide, the Volume of distribution in data set [1] (approved peptide therapeutics) is 48.7 L.
As for `CCCCCCCCCCCCCCCC(=O)N[C@@H](CCCCN)C(=O)N[C@H](C(=O)N[C@@H](CCC(N)=O)C(=O)N[C@@H](CCCCN)C(=O)N[C@@H](Cc1ccc2ccccc2c1)C(=O)N[C@@H](CO)C(=O)N[C@@H](C)C(=O)N1CCC[C@H]1C(=O)N[C@H](C(=O)N[C@@H](CC(=O)O)C(=O)N1CCC[C@H]1C(=O)N[C@@H](CO)C(=O)N[C@@H](CO)C(=O)N1CCC[C@H]1C(=O)N[C@@H](Cc1c[nH]cn1)C(=O)N[C@@H](CO)C(=O)N[C@@H](Cc1ccc(O)cc1)C(N)=O)C(C)C)C(C)C` [ADE651H] (Palmitoyl-KVQK[2Nal]SAPVDPSSPHSY-NH2), in data set [2], the IC50 is 15.1 nM, the Maximum response was 100.1 % of positive control and the “Antagonistic activity toward CGRP-mediated CLR/RAMP1 signaling compared to ADE651” value is given as “significantly reduced antagonistic activity”. Moreover, in data set [3], the Gel-forming ability result was “Y”.
The corresponding values for `CCCCCCCCCCCCCCCC(=O)N[C@@H](CCCCN)C(=O)N[C@H](C(=O)N[C@@H](CCC(N)=O)C(=O)N[C@@H](CCCCN)C(=O)N[C@@H](CCS(C)(=O)=O)C(=O)N[C@@H](CO)C(=O)N[C@@H](C)C(=O)N1CCC[C@H]1C(=O)N[C@H](C(=O)N[C@@H](CC(=O)O)C(=O)N1CCC[C@H]1C(=O)N[C@@H](CO)C(=O)N[C@@H](CO)C(=O)N1CCC[C@H]1C(=O)N[C@@H](Cc1c[nH]cn1)C(=O)N[C@@H](CO)C(=O)N[C@@H](Cc1ccc(O)cc1)C(N)=O)C(C)C)C(C)C` [ADE651J] (Palmitoyl-KVQK[Met(O2)]SAPVDPSSPHSY-NH2) are 0.9 nM, 100.4 % of positive control, “retained the potent antagonistic activity” and “Y”.
As for `CSCC[C@H](NC(=O)CNC(=O)CNC(=O)[C@H](CO)NC(=O)[C@H](CCCNC(=N)N)NC(=O)[C@H](CO)NC(=O)[C@H](CC(C)C)NC(=O)[C@H](CC(C)C)NC(=O)CNC(=O)[C@H](C)NC(=O)[C@H](CC(C)C)NC(=O)[C@H](CCCNC(=N)N)NC(=O)[C@H](Cc1c[nH]cn1)NC(=O)[C@@H](NC(=O)[C@@H](NC(=O)[C@@H]1CSSC[C@H](NC(=O)[C@H](C)N)C(=O)N[C@@H](CC(N)=O)C(=O)N[C@@H]([C@@H](C)O)C(=O)N[C@@H](C)C(=O)N[C@@H]([C@@H](C)O)C(=O)N1)C(C)C)[C@@H](C)O)C(=O)N[C@H](C(=O)N[C@@H](CCCCN)C(=O)N[C@@H](CO)C(=O)N[C@@H](CC(N)=O)C(=O)N[C@@H](Cc1ccccc1)C(=O)N[C@H](C(=O)N1CCC[C@H]1C(=O)N[C@H](C(=O)N[C@@H](CC(N)=O)C(=O)N[C@H](C(=O)NCC(=O)N[C@@H](CO)C(=O)N[C@@H](CCCCN)C(=O)N[C@@H](C)C(=O)N[C@@H](Cc1ccccc1)C(N)=O)C(C)C)[C@@H](C)O)C(C)C)C(C)C` [CGRP, calcitonin gene-related peptide], the “EC80 of agonist in the cAMP assay” value in data set [2] (agonist, cAMP Hunter CLR/RAMP1 cells) is reported as 0.37 nM. Further, the “Solubility in 5% glucose solution” value in data set [3] (visual) is “soluble from 0.1% to 20%”. Moreover, the “Peptide level in elutes from 0.1, 5, 10 and 20% solution groups” value in data set [5] is on record as “similar”. In addition, the “Increase in blood flow at the 5 h time point in control animals” value in data set [6] was above 25%.
Consider exenatide: approved peptide therapeutic, for which the Volume of distribution in data set [1] (in vivo) was 28.3 L.
